Values quoted from earlier work as cited in US5585490A, “Certain cycloalkyl and azacycloalkyl pyrrolopyrimidines; a new class of GABA brain receptor ligands” (priority 1993, dated 1996).

System: benzodiazepine binding site
Conditions: Tallman et al., 1978, Nature, 274: 383-85

Compound	Enhancement of benzodiazepine binding by GABA agonists is blocked
CN1CCc2cc3c(cc2C1C1OC(=O)c2c1ccc1c2OCO1)OCO3 (single isomer, unassigned; (-)) [(-) bicuculline]	much less active
CN1CCc2cc3c(cc2C1C1OC(=O)c2c1ccc1c2OCO1)OCO3 (single isomer, unassigned; (+)) [(+) bicuculline]	blocked
